Biological target: T1, P2X7 receptor (Homo sapiens, UniProt Q99572)
T1 construct: host or cells: THP-1 cells differentiated with LPS and IFN-γ
T1 sequence (Q99572 1-595): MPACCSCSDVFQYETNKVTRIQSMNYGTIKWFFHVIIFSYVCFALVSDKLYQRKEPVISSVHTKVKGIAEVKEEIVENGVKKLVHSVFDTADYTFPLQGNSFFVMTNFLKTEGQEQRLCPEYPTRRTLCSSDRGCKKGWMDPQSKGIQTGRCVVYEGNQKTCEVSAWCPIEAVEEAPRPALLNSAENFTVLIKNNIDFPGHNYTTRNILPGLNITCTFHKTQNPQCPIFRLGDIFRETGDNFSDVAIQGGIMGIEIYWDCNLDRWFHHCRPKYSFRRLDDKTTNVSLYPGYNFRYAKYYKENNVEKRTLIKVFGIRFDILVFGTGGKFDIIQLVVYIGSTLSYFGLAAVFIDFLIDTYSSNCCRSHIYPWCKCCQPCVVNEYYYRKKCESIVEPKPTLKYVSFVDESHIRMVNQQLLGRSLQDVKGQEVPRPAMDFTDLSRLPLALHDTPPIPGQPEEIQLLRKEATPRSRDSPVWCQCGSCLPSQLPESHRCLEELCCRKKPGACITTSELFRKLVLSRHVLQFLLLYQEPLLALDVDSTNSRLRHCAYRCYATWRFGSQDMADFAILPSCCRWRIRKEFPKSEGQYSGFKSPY
Assay: Alternate method for IL-1β release assay (differentiated THP-1 cells, BzATP-stimulated, ELISA)
Type: cell-based
Conditions: P2X7; 0.1 μM compound (plus symbols); read-out: IL-1β % inhib @ 0.1 μM
Method in brief: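 After 16 h differentiation with 100 ng/mL LPS and 100 ng/mL IFN-γ plus a further 2 h LPS priming, THP-1 cells were pretreated 30 min with compound, then stimulated with 250 uM BzATP (final) for 45 min. Supernatant IL-1β measured by ELISA; percent inhibition from background-adjusted levels versus untreated cells.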

inhibition at 0.1 µM [%] | SMILES
> 75 | c1ccc(CN2CCc3c(ncnc3NCC34CC5CC(CC(C5)C3)C4)C2)cc1 [Compound 1, Adamantan-1-ylmethyl-(7-benzyl-5,6,7,8-tetrahydro-pyrido[3,4-d]pyrimidin-4-yl)-amine]

Same assay, conditions: P2X7; 0.1 μM compound (symbols + to ++++); read-out: IL-1β % inhib @ 0.1 μM

SMILES | inhibition at 0.1 µM [%]
O=C(COc1cccc(Cl)c1)N1CCc2c(ncnc2NCC23CC4CC(CC(C4)C2)C3)C1 [Compound 248, 1-{4-[(Adamantan-1-ylmethyl)-amino]-5,8-dihydro-6H-pyrido[3,4-d]pyrimidin-7-yl}-2-(3-chloro-phenoxy)-ethanone] | > 75
O=C(OCc1ccc(F)cc1F)N1CCc2c(ncnc2NCC23CC4CC(CC(C4)C2)C3)C1 [Compound 325] | > 75
O=C(COc1ccc(OC(F)(F)F)cc1)N1CCc2c(ncnc2NCC23CC4CC(CC(C4)C2)C3)C1 [Compound 251, 1-{4-[(Adamantan-1-ylmethyl)-amino]-5,8-dihydro-6H-pyrido[3,4-d]pyrimidin-7-yl}-2-(4-trifluoromethoxy-phenoxy)-ethanone] | 0 to 25

Now from value to compound:

inhibition at 0.1 µM [%] | SMILES
> 75 | O=C(c1cccnc1)N1CCc2c(ncnc2NCC23CC4CC(CC(C4)C2)C3)C1 [Compound 257, 4-[(Adamantan-1-ylmethyl)-amino]-5,8-dihydro-6H-pyrido[3,4-d]pyrimidin-7-yl-pyridin-3-yl-methanone]
> 75 | OC12CC3CC(C1)CC(CNc1ncnc4c1CCN(Cc1ccccc1)C4)(C3)C2 [Compound 326, 3-[(7-Benzyl-5,6,7,8-tetrahydro-pyrido[3,4-d]pyrimidin-4-ylamino)-methyl]-adamantan-1-ol]
0 to 25 | O=C(O[C@@H]1CCOC1)N1CCc2c(ncnc2NCC23CC4CC(CC(C4)C2)C3)C1 [Compound 250, 4-[(Adamantan-1-ylmethyl)-amino]-5,8-dihydro-6H-pyrido[3,4-d]pyrimidine-7-carboxylic acid (R)-(tetrahydro-furan-3-yl)ester]

Same assay, conditions: P2X7; 0.3 μM compound (asterisk symbols); read-out: IL-1β % inhib @ 0.3 μM

SMILES | inhibition at 0.3 µM [%]
Cc1c(S(=O)(=O)N2CCc3c(ncnc3NCC34CC5CC(CC(C5)C3)C4)C2)cnn1-c1ccccc1 [Compound 19] | 50 to 75
O=C(c1ccc(F)cc1F)N1CCc2c(ncnc2NCC23CC4CC(CC(C4)C2)C3)C1 [Compound 132] | 50 to 75
O=C(c1ccc(Cl)cc1Cl)N1CCc2c(ncnc2NCC23CC4CC(CC(C4)C2)C3)C1 [Compound 113] | > 75
COc1ccc(C(=O)N2CCc3c(ncnc3NCC34CC5CC(CC(C5)C3)C4)C2)cc1 [Compound 90] | 0 to 25
O=S(=O)(c1ccc2ccccc2c1)N1CCc2c(ncnc2NCC23CC4CC(CC(C4)C2)C3)C1 [Compound 6] | 0 to 25
c1nc2c(c(NCC34CC5CC(CC(C5)C3)C4)n1)CCN(CC1CC1)C2 [Compound 168] | 0 to 25
O=S(=O)(c1cc(F)ccc1F)N1CCc2c(ncnc2NCC23CC4CC(CC(C4)C2)C3)C1 [Compound 60] | 25 to 50
COc1ccc(S(=O)(=O)N2CCc3c(ncnc3NCC34CC5CC(CC(C5)C3)C4)C2)cc1OC [Compound 12] | 25 to 50
Cc1cc(C)cc(S(=O)(=O)N2CCc3c(ncnc3NCC34CC5CC(CC(C5)C3)C4)C2)c1 [Compound 73] | 0 to 25
Cc1ccccc1S(=O)(=O)N1CCc2c(ncnc2NCC23CC4CC(CC(C4)C2)C3)C1 [Compound 56] | 25 to 50
CCCC(C)CN1CCc2c(ncnc2NCC23CC4CC(CC(C4)C2)C3)C1 (stereo not drawn) [Compound 193] | > 75
O=S(=O)(c1cccc(C(F)(F)F)c1)N1CCc2c(ncnc2NCC23CC4CC(CC(C4)C2)C3)C1 [Compound 15] | 0 to 25

The next lines start with the values.

inhibition at 0.3 µM [%] | SMILES
0 to 25 | Cc1cc(C(=O)N2CCc3c(ncnc3NCC34CC5CC(CC(C5)C3)C4)C2)nn1C [Compound 139]
50 to 75 | O=S(=O)(c1cc(Cl)ccc1Cl)N1CCc2c(ncnc2NCC23CC4CC(CC(C4)C2)C3)C1 [Compound 61]
0 to 25 | Cc1nn(C)c(C)c1S(=O)(=O)N1CCc2c(ncnc2NCC23CC4CC(CC(C4)C2)C3)C1 [Compound 54]
> 75 | O=C(c1cccc(Cl)c1Cl)N1CCc2c(ncnc2NCC23CC4CC(CC(C4)C2)C3)C1 [Compound 137]
0 to 25 | COc1ccc(CN2CCc3c(ncnc3NCC34CC5CC(CC(C5)C3)C4)C2)cc1 [Compound 173]
> 75 | O=C(CCc1ccccc1)N1CCc2c(ncnc2NCC23CC4CC(CC(C4)C2)C3)C1 [Compound 103]
25 to 50 | O=S(=O)(Cc1cccc(C(F)(F)F)c1)N1CCc2c(ncnc2NCC23CC4CC(CC(C4)C2)C3)C1 [Compound 43]
> 75 | Cc1cccc(C(=O)N2CCc3c(ncnc3NCC34CC5CC(CC(C5)C3)C4)C2)c1 [Compound 86]
0 to 25 | O=C(C(c1ccccc1)c1ccccc1)N1CCc2c(ncnc2NCC23CC4CC(CC(C4)C2)C3)C1 [Compound 92]
0 to 25 | O=S(=O)(c1ccccc1OC(F)(F)F)N1CCc2c(ncnc2NCC23CC4CC(CC(C4)C2)C3)C1 [Compound 55]
0 to 25 | O=S(=O)(c1ccc(-n2cccn2)cc1)N1CCc2c(ncnc2NCC23CC4CC(CC(C4)C2)C3)C1 [Compound 52]
25 to 50 | Cc1ccc(S(=O)(=O)N2CCc3c(ncnc3NCC34CC5CC(CC(C5)C3)C4)C2)cc1Cl [Compound 64]

Same assay, conditions: P2X7; 0.3 μM compound (symbols * to ****); read-out: IL-1β % inhib @ 0.3 μM

SMILES | inhibition at 0.3 µM [%]
CC1CCN(CC(=O)N2CCc3c(ncnc3NCC3C4CC5CC(C4)CC3C5)C2)CC1 (stereo not drawn) [Compound 292] | 25 to 50
COc1cccc(CN2CCc3c(ncnc3NCC34CC5CC(CC(C5)C3)C4)C2)c1OC [Compound 202] | > 75
O=C(CNC1CCN(Cc2ccccc2)CC1)N1CCc2c(ncnc2NCC23CC4CC(CC(C4)C2)C3)C1 [Compound 261] | 25 to 50
O=C(CN1CCC(Cc2ccccc2)CC1)N1CCc2c(ncnc2NCC23CC4CC(CC(C4)C2)C3)C1 [Compound 264] | 25 to 50
Fc1cc(CN2CCc3c(ncnc3NCC34CC5CC(CC(C5)C3)C4)C2)ccc1Cl [Compound 222] | > 75

Next, values leading:

inhibition at 0.3 µM [%] | SMILES
> 75 | CCOc1ccc(CN2CCc3c(ncnc3NCC34CC5CC(CC(C5)C3)C4)C2)cc1 [Compound 241]
25 to 50 | CC12CC3(C)CC(C)(C1)CC(CNc1ncnc4c1CCN(Cc1ccccc1)C4)(C2)C3 [Compound 247]
0 to 25 | CCN(C)CC(=O)N1CCc2c(ncnc2NCC2C3CC4CC(C3)CC2C4)C1 (stereo not drawn) [Compound 282]
0 to 25 | CN1CCC(NCC(=O)N2CCc3c(ncnc3NCC3C4CC5CC(C4)CC3C5)C2)CC1 (stereo not drawn) [Compound 289]
50 to 75 | O=C(CN1CCN(c2ccccc2)CC1)N1CCc2c(ncnc2NCC23CC4CC(CC(C4)C2)C3)C1 [Compound 259]
> 75 | Fc1cccc(CN2CCc3c(ncnc3NCC34CC5CC(CC(C5)C3)C4)C2)c1 [Compound 216]
0 to 25 | CC(C)N(C)CC(=O)N1CCc2c(ncnc2NCC2C3CC4CC(C3)CC2C4)C1 (stereo not drawn) [Compound 313]
0 to 25 | Brc1ccc(CN2CCc3c(ncnc3NCC34CC5CC(CC(C5)C3)C4)C2)cn1 [Compound 224]

Same assay, conditions: P2X7; at 0.03 μM (asterisk symbols); read-out: IL-1β % inhib @ 0.3 μM or @ 0.03 μM

inhibition at 0.03 µM [%] | SMILES
0 to 25 | C[C@H](N)C(=O)N1CCc2c(ncnc2NCC(O)C23CC4CC(CC(C4)C2)C3)C1 (stereo partly drawn) [Compound 713, (S)-1-[4-(2-Adamantan-1-yl-2-hydroxy-ethylamino)-5,8-dihydro-6H-pyrido[3,4-d]pyrimidin-7-yl]-2-amino-propan-1-one]

From patent US20100022531A1, “NOVEL COMPOUNDS AS P2X7 MODULATORS AND USES THEREOF” (RENOVIS, INC., priority 2005, published 2010)
